Laboratory results: patent publication US20080045564A1 (priority 2006, published 2008)

Experiments:
human CYP1A1 = settings: due to increased mRNA expression levels; Bapiro et al.; cited from earlier work

Compound | induction of CYP2B6 by reference inducer (CYP2B6; 1 mM Phenobarbital, each hepatocyte donor) | induction of CYP2B6 activity (statistical significance, summary over three donors) (CYP2B6; hepatocytes) | induction of human CYP1A1 activity (human CYP1A1)
CCC1(c2ccccc2)C(=O)NC(=O)NC1=O [Phenobarbital] | statistically significant amount of induction | – | –
C=C[C@H]1C[N@@]2CC[C@H]1C[C@H]2[C@H](O)c1ccnc2ccc(OC)cc12 [quinine, cinchonan-9-ol, 6′-methoxy-, (8a,9R)-] | – | an inducer | induced
